Where a name gives a salt, the structure may show the parent alone. Read-outs that look alike come from different tables or passages of the source.
Columns and labels:
[1] = target: T1, SARS-CoV-2 PLpro (nsp3 1564–1878) (Severe acute respiratory syndrome coronavirus 2, UniProt P0DTD1); experiment: biochemical; parameters: FRET-quenched peptide (Pro3) cleavage by PLpro, 10 min pre-incubation, slope over 20 min, normalised to no-compound control; details: low concentration screen, read-out: % of control remaining
[2] = target: T1, SARS-CoV-2 PLpro (nsp3 1564–1878); experiment: biochemical; parameters: FRET-quenched peptide (Pro3) cleavage by PLpro, 10 min pre-incubation, slope over 20 min, normalised to no-compound control; details: high concentration screen, read-out: % of control remaining

COC1=C2C[C@@H](C)C[C@H](OC)[C@H](O)[C@@H](C)/C=C(\C)[C@H](OC(N)=O)[C@@H](OC)/C=C\C=C(/C)C(=O)NC(=CC1=O)C2=O [Geldanamycin]
remaining activity at 1.25 µM ([1]; Well no.=5019): 98.5% | remaining activity at 3.75 µM ([2]; Well no.=5019): 101%

NCCCCC(=O)O [5-Aminovaleric acid hydrochloride]
remaining activity at 1.25 µM ([1]; Well no.=147): 103% | remaining activity at 3.75 µM ([2]; Well no.=147): 101%

CN1[C@@H]2CCC[C@H]1C[C@@H](NC(=O)c1nn(C)c3ccccc13)C2 [Granisetron HCl]
remaining activity at 1.25 µM ([1]; Well no.=5189): 99.3% | remaining activity at 3.75 µM ([2]; Well no.=5189): 97.5%

CC[C@H]1[C@@H](O)[C@@H]2[C@H](CC[C@]3(C)[C@@H]([C@H](C)CCC(=O)O)CC[C@@H]23)[C@@]2(C)CC[C@@H](O)C[C@@H]12 [Obeticholic Acid]
remaining activity at 1.25 µM ([1]; Well no.=8720): 90.8% | remaining activity at 3.75 µM ([2]; Well no.=8720): 93%

N[C@@H](CCC(=O)N[C@@H](CSN=O)C(=O)NCC(=O)O)C(=O)O [S-Nitrosoglutathione]
remaining activity at 1.25 µM ([1]; Well no.=855): 103% | remaining activity at 3.75 µM ([2]; Well no.=855): 104%

Cn1c(=O)c2c(ncn2CC(O)CO)n(C)c1=O (stereo not drawn) [Diphylline]
remaining activity at 1.25 µM ([1]; Well no.=7387): 106% | remaining activity at 1.25 µM ([1]; Well no.=8273): 101% | remaining activity at 3.75 µM ([2]; Well no.=7387): 105% | remaining activity at 3.75 µM ([2]; Well no.=8273): 98.7%

CN1C[C@H](CNC(=O)OCc2ccccc2)C[C@@H]2c3cccc4c3c(cn4C)C[C@H]21 [Metergoline]
remaining activity at 1.25 µM ([1]; Well no.=782): 99.4% | remaining activity at 3.75 µM ([2]; Well no.=782): 100%

CC1(C)O[C@@H]2[C@@H](CO[C@@]3(COS(N)(=O)=O)OC(C)(C)O[C@@H]23)O1 [Topiramate]
remaining activity at 1.25 µM ([1]; Well no.=4853): 101% | remaining activity at 1.25 µM ([1]; Well no.=7527): 102% | remaining activity at 3.75 µM ([2]; Well no.=4853): 104% | remaining activity at 3.75 µM ([2]; Well no.=7527): 100%

Fc1ccc(-c2cncc(CN3CCN(c4cccc5c4OCCO5)CC3)c2)cc1 [Adoprazine]
remaining activity at 1.25 µM ([1]; Well no.=8443): 100% | remaining activity at 3.75 µM ([2]; Well no.=8443): 98.5%

CC(=O)O[C@@H]1[C@@H](OC(C)=O)[C@@H](O)[C@H](Oc2c(-c3ccc(O)cc3)oc3cc(O)cc(O)c3c2=O)O[C@H]1C [RSK Inhibitor, SL0101]
remaining activity at 1.25 µM ([1]; Well no.=2635): 95.6% | remaining activity at 3.75 µM ([2]; Well no.=2635): 97.4%

COc1c(O)c2c(=O)cc(OC)c3c4c(OC)cc(=O)c5c(O)c(OC)c6c(c(c1CC(C)=C6C(C)=O)c23)c54 [Hypocrellin B]
remaining activity at 1.25 µM ([1]; Well no.=3691): 100% | remaining activity at 3.75 µM ([2]; Well no.=3691): 103%

O=C1OC(=O)[C@H]2[C@@H]1[C@@H]1CC[C@H]2O1 [Norcantharidin]
remaining activity at 1.25 µM ([1]; Well no.=909): 100% | remaining activity at 3.75 µM ([2]; Well no.=909): 97.7%

CCN(C)C(=O)Oc1cccc([C@H](C)N(C)C)c1 [Rivastigmine]
remaining activity at 1.25 µM ([1]; Well no.=1722): 95.2% | remaining activity at 3.75 µM ([2]; Well no.=1722): 96.3%

COC1=C(N)C(=O)c2nc(-c3nc(C(=O)O)c(C)c(-c4ccc(OC)c(OC)c4O)c3N)ccc2C1=O [Streptonigrin]
remaining activity at 1.25 µM ([1]; Well no.=3304): 96.9% | remaining activity at 3.75 µM ([2]; Well no.=3304): 96.9%

O=C(O)CCCC[C@@H]1CCSS1 [Lipoic acid]
remaining activity at 1.25 µM ([1]; Well no.=6915): 105% | remaining activity at 3.75 µM ([2]; Well no.=6915): 104%

CC(=O)Nc1ccc(NC(=S)NC(=O)c2ccc(C(C)(C)C)cc2)cc1 [p53 Activator (Tenovin-1)]
remaining activity at 1.25 µM ([1]; Well no.=2901): 97.7% | remaining activity at 3.75 µM ([2]; Well no.=2901): 96.4%

O=S(=O)(c1c(O)c(Cl)cc(Cl)c1Cl)c1c(O)c(Cl)cc(Cl)c1Cl [p38 MAP Kinase Inhibitor IV]
remaining activity at 1.25 µM ([1]; Well no.=2527): 97.2% | remaining activity at 3.75 µM ([2]; Well no.=2527): 103%

CC(N/C(=N\C#N)Nc1ccncc1)C(C)(C)C (stereo not drawn) [Pinacidil]
remaining activity at 1.25 µM ([1]; Well no.=1503): 98.1% | remaining activity at 1.25 µM ([1]; Well no.=1603): 103% | remaining activity at 3.75 µM ([2]; Well no.=1503): 97.2% | remaining activity at 3.75 µM ([2]; Well no.=1603): 98.9%

NCCCC(O)(P(=O)(O)O)P(=O)(O)O [Alendronate]
remaining activity at 1.25 µM ([1]; Well no.=2079): 105% | remaining activity at 3.75 µM ([2]; Well no.=2079): 104%

O=C(O)c1ccc[nH]1 [Pyrrole-2-carboxylic acid]
remaining activity at 1.25 µM ([1]; Well no.=6405): 93.2% | remaining activity at 3.75 µM ([2]; Well no.=6405): 92.4%

CN(C)C(=N)NC(=N)N [Metformin HCl]
remaining activity at 1.25 µM ([1]; Well no.=8430): 94.8% | remaining activity at 3.75 µM ([2]; Well no.=8430): 94.9%

CN(C)c1ccc(-c2nc3ncc(Cl)c(N4CCN(CC(=O)Nc5nccs5)CC4)c3[nH]2)cc1 [CCT129202]
remaining activity at 1.25 µM ([1]; Well no.=5253): 88.1% | remaining activity at 3.75 µM ([2]; Well no.=5253): 93.9%

Cc1nc2c(c(=O)[nH]1)CSCC2 [DR2313]
remaining activity at 1.25 µM ([1]; Well no.=5778): 96.1% | remaining activity at 3.75 µM ([2]; Well no.=5778): 96.7%

Nc1nc(CC(=O)Nc2ccc(CCNC[C@H](O)c3ccccc3)cc2)cs1 [Mirabegron]
remaining activity at 1.25 µM ([1]; Well no.=6273): 107% | remaining activity at 3.75 µM ([2]; Well no.=6273): 116%

CCC(C)(C)c1ccc(CC(C)CN2C[C@@H](C)O[C@@H](C)C2)cc1 (stereo partly drawn) [Amorolfine HCl]
remaining activity at 1.25 µM ([1]; Well no.=5337): 98.1% | remaining activity at 3.75 µM ([2]; Well no.=5337): 98.1%

Oc1ccc(C2CNCCc3c2cc(O)c(O)c3Cl)cc1 (stereo not drawn) [Fenoldopam (mesylate)]
remaining activity at 1.25 µM ([1]; Well no.=6267): 106% | remaining activity at 3.75 µM ([2]; Well no.=6267): 103%

CC(C)(O)CNc1nc(Nc2ccnc(C(F)(F)F)c2)nc(-c2cccc(C(F)(F)F)n2)n1 [Enasidenib (AG-221)]
remaining activity at 1.25 µM ([1]; Well no.=8582): 101% | remaining activity at 3.75 µM ([2]; Well no.=8582): 101%

Clc1ccc(C(c2ccccc2Cl)C(Cl)Cl)cc1 (stereo not drawn) [1-(2-Chlorophenyl)-1-(4-chlorophenyl)-2,2-dichloroethane]
remaining activity at 1.25 µM ([1]; Well no.=76): 96.7% | remaining activity at 3.75 µM ([2]; Well no.=76): 97.1%

C[C@]12CCC(=O)C(O)=C1CC[C@@H]1[C@@H]2CC[C@]2(C)C(=O)CC[C@@H]12 [Formestane]
remaining activity at 1.25 µM ([1]; Well no.=2134): 99.1% | remaining activity at 3.75 µM ([2]; Well no.=2134): 101%

CNC(=O)CCc1cc(-c2ccc(-c3ccc(C(F)(F)F)cc3)cc2)nn1-c1ccc(N2CCNCC2)cc1 [OSU-T315]
remaining activity at 1.25 µM ([1]; Well no.=7022): 92.9% | remaining activity at 3.75 µM ([2]; Well no.=7022): 93.8%

CC(C)c1ccc(C(=O)N=C(N)N)cc1S(C)(=O)=O [N''-[4-isopropyl-3-(methylsulfonyl)benzoyl]guanidine]
remaining activity at 1.25 µM ([1]; Well no.=5586): 91.7% | remaining activity at 3.75 µM ([2]; Well no.=5586): 91.3%

OCCOCCN1CCN(C2=Nc3ccccc3Sc3ccccc32)CC1 [Quetiapine Fumarate]
remaining activity at 1.25 µM ([1]; Well no.=1684): 99.2% | remaining activity at 3.75 µM ([2]; Well no.=1684): 100%

Cc1ccc(NC(=O)C(=O)NC2CC(C)(C)NC(C)(C)C2)cc1 [YYA-021]
remaining activity at 1.25 µM ([1]; Well no.=8084): 102% | remaining activity at 3.75 µM ([2]; Well no.=8084): 106%

Reference: article PMC8286840, “Identifying SARS-CoV-2 antiviral compounds by screening for small molecule inhibitors of Nsp3 papain-like protease” (Biochemical Journal, 2021)
